target: T1, human M4 muscarinic acetylcholine receptor (Homo sapiens, UniProt P08173); assay: human FLIPR-based M4 PAM assay, CHO-K1 cells stably transfected with human M4 receptor and chimeric G-protein Gαqi5; format: cell-based; conditions: inflection point (IP) of dose response curve; acetylcholine added at 20% of maximum response; CHO-K1 human M4/Gαqi5, FLIPR Tetra
T1 construct: expressed in transfected cells; host or cells: CHO-K1
T1 sequence (P08173 1-479): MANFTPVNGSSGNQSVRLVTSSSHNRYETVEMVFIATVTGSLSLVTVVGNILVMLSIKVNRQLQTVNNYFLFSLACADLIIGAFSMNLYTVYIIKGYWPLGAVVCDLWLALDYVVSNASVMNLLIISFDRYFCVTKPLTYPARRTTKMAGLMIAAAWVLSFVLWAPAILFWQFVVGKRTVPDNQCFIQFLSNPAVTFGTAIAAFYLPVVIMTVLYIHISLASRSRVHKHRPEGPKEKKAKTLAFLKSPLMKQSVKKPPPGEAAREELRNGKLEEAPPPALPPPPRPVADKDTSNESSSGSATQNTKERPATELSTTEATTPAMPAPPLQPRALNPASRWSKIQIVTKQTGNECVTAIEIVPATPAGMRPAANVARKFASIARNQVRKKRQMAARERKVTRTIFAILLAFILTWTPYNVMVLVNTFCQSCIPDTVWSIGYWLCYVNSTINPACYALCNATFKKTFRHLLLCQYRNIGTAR
In short: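 The FLIPR read recorded 4 min after compound was added across a concentration range, then 3.5 min after acetylcholine giving 20% of its maximal response, with an occasional extra EC70 addition. Cells were dye-loaded for about 1 h at 37 °C. Potency is the curve inflection point from a four-parameter logistic fit.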

In order of rising EC50:
1. Cc1cc(C(=O)NCc2cnsc2)nnc1N1CCC(Oc2cccc(C#N)c2)CC1 [Example 192, 6-[4-(3-cyanophenoxy)piperidin-1-yl]-N-(isothiazol-4-ylmethyl)-5-methypyridazine-3-carboxamide]  22 nM
2. COc1ccc(OC2CCN(c3nc(C#N)c(C(N)=O)cc3C)CC2)cn1 [Example 112, 2-cyano-6-{4-[(6-methoxpyridin-3-yl)oxy]piperidin-1-yl}-5-methylpyridine-3-carboxamide]  41 nM
3. Cc1c(Cl)ncnc1N1CCC(Oc2cccc(C#N)c2)CC1 [Example 50, 3-((1-(6-chloro-5-methypyrimidin-4-yl)piperidin-4-yl)oxy)benzonitrile]  49 nM
4. Cc1nc2ccc(O[C@@H]3CCN(c4nc(CO)nc(Cl)c4C)C[C@@H]3F)cc2o1 [Example 52, (4-chloro-6-((3S,4R)-3-fluoro-4-((2-methylbenzo[d]oxazol-6-yl)oxy)piperidin-1-yl)-5-methylpyrimidin-2-yl)methanol]  53 nM
5. Cc1ncc(C)c(N2CCC(Oc3ccc4[nH]ncc4c3)CC2)n1 [Example 59, 5-((1-(2,5-dimethylpyrimidin-4-yl)piperidin-4-yl)oxy)-1H-indazole]  66 nM
6. Cc1c(Cl)nc(CO)nc1N1CCC(Oc2ccc3c(c2)C(=O)OC3)CC1 [Example 24, 6-((1-(6-chloro-2-(hydroxymethyl)-5-methylpyrimidin-4-yl)piperidin-4-yl)oxy)isobenzofuran-1(3H)-one]  77 nM
7. COc1ccc(OC2CCN(c3nnc(C(=O)NCc4ccncc4C)cc3C)CC2)cn1 [Example 121, 6-{4-[(6-methoxypyridin-3-yl)oxy]piperidin-1-yl}-5-methyl-N-[(3-methylpyridin-4-yl)methyl]pyridazine-3-carboxamide]  99 nM
8. Cc1cc(C(=O)NCc2ccncc2)nnc1N1CCC(Oc2cccnc2)CC1 [Example 122, 5-methyl-N-(pyridin-4-ylmethyl)-6-[4-(pyridin-3-yloxy)piperidin-1-yl]pyridazine-3-carboxamide]  101 nM
9. Cc1cc(C(=O)NCc2ccccc2Cl)nnc1N1CCC(Oc2cccc(C#N)c2)CC1 [Example 199, N-(2-chlorobenzyl)-6-[4-(3-cyanophenoxy)piperidin-1-yl]-5-methylpyridazine-3-carboxamide]  118 nM
10. COc1ccc(OC2CCN(c3nc(S(C)(=O)=O)nc(Cl)c3C)CC2)cc1 [Example 73, 4-chloro-6-(4-(4-methoxyphenoxy)piperidin-1-yl)-5-methyl-2-(methylsulfonyl)pyrimidine]  141 nM
11. Cc1cc(C(=O)NC2CCc3ncccc3C2)nnc1N1CCC(OCC2CC2)CC1 (stereo not shown) [Example 133, 6-[4-(cyclopropylmethoxy)piperidin-1-yl]-5-methyl-N-(5,6,7,8-tetrahydroquinolin-6-yl)pyridazine-3-carboxamide]  142 nM
12. COc1ccc(OC2CCN(c3nc(NCCO)nc(Cl)c3C)CC2)cn1 [Example 228, 2-((4-Chloro-6-(4-((6-methoxypyridin-3-yl)oxy)piperidin-1-yl)-5-methylpyrimidin-2-yl)amino)ethan-1-ol]  156 nM
13. COc1ccc(OC2CCN(c3nnc(C(=O)N[C@@H]4CCc5ccncc5C4)cc3C)CC2)cn1 (single isomer, unassigned) [Example 107A]  182 nM
14. COc1ccc(OC2CCN(c3nnc(C(=O)NCCn4ccnn4)cc3C)CC2)cn1 [Example 142, 6-{4-[(6-methoxypyridin-3-yl)oxy]piperidin-1-yl}-5-methyl-N-[2-(1H-1,2,3-triazol-1-yl)ethyl]pyridazine-3-carboxamide]  185 nM
15. Cc1c(Cl)nc(CO)nc1N1CCC(Oc2ccc3c(c2)CCCC3=O)CC1 [Example 36, 6-((1-(6-chloro-2-(hydroxymethyl)-5-methylpyrimidin-4-yl)piperidin-4-yl)oxy)-3,4-dihydronaphthalen-1(2H)-one]  222 nM
16. COc1ccc(OC2CCN(c3nnc(C(=O)NCc4c(C)nc5ccccn45)cc3C)CC2)cn1 [Example 149, 6-{4-[(6-methoxypyridin-3-yl)oxy]piperidin-1-yl}-5-methyl-N-[(2-methylimidazo[1,2-a]pyridin-3-yl)methyl]pyridazine-3-carboxamide]  228 nM
17. COc1ccc(OC2CCN(c3ncnc(N4CC(F)(F)C4)c3C)CC2)cn1 [Example 236, 4-(3,3-difluoroazetidin-1-yl)-6-(4-((6-methoxypyridin-3-yl)oxy)piperidin-1-yl)-5-methylpyrimidine]  228 nM
18. Cc1c(Cl)nc(CO)nc1N1CCC(Oc2ccc3c(c2)C(=O)CCC3)CC1 [Example 38, 7-((1-(6-chloro-2-(hydroxymethyl)-5-methylpyrimidin-4-yl)piperidin-4-yl)oxy)-3,4-dihydronaphthalen-1(2H)-one]  252 nM
19. Cc1ncc(C)c(N2CCC(Oc3ccc4cn[nH]c4c3)CC2)n1 [Example 80, 6-((1-(2,5-dimethylpyrimidin-4-yl)piperidin-4-yl)oxy)-1H-indazole]  257 nM
20. COc1ccc(OC2CCN(c3nnc(C(=O)NCCn4ccnc4)cc3C)CC2)cn1 [Example 162, N-[2-(1H-imidazol-1-yl)ethyl]-6-{4-[(6-methoxypyridin-3-yl)oxy]piperidin-1-yl}-5-methylpyridazine-3-carboxamide]  306 nM
21. C=Cc1ncnc(N2CCC(Oc3ccc(OC)nc3)CC2)c1C [Example 243, 4-(4-((6-methoxypyridin-3-yl)oxy)piperidin-1-yl)-5-methyl-6-vinylpyrimidine]  342 nM
22. COC(=O)c1cc(C)c(N2CCC(Oc3ccc(OC)nc3)CC2)nc1F [Example 102, Methyl 2-fluoro-6-(4-((6-methoxypyridin-3-yl)oxy)piperidin-1-yl)-5-methylnicotinate]  378 nM
23. Cc1ccc(OC2CCN(c3nc(CO)nc(Cl)c3C)CC2)cc1Cl [Example 3, (4-chloro-6-(4-(3-chloro-4-methylphenoxy)piperidin-1-yl)-5-methylpyrimidin-2-yl)methanol]  452 nM
24. COc1ccc(OC2CCN(c3nnc(C(=O)N4CCc5snc(-c6cccnc6)c5C4)cc3C)CC2)cn1 [Example 203, 5-[(6-{4-[(6-methoxypyridin-3-yl)oxy]piperidin-1-yl}-5-methylpyridazin-3-yl)carbonyl]-3-pyridin-3-yl-4,5,6,7-tetrahydroisothiazolo[4,5-c]pyridine]  504 nM
25. COc1ccc(OC2CCN(c3nnc(C(=O)N[C@H]4CCc5ccccc5C4)cc3C)CC2)cn1 [Example 165B, (S)-6-{4-[(6-methoxypyridin-3-yl)oxy]piperidin-1-yl}-5-methyl-N-(1,2,3,4-tetrahydronapthalen-2-yl)pyridazine-3-carboxamide]  527 nM
26. COc1ccc(OC2CCN(c3nnc(C(=O)NCc4ccncc4)cc3C(F)F)CC2)cn1 [Example 265, 5-(Difluoromethyl)-6-(4-((6-methoxypyridin-3-yl)oxy)piperidin-1-yl)-N-(pyridin-4-ylmethyl)pyridazine-3-carboxamide]  585 nM
27. COc1ccc(OC2CCN(c3nc(C(=O)NC45CC(C4)C5)nc(Cl)c3C)CC2)cn1 [Example 210, N-(bicyclo[1.1.1]pentan-1-yl)-4-chloro-6-(4-((6-methoxypyridin-3-yl)oxy)piperidin-1-yl)-5-methylpyrimidine-2-carboxamide]  592 nM
28. COc1ccc(OC2CCN(c3ncnc(-c4ccc(F)nc4)c3C)CC2)cn1 [Example 246, 4-(6-fluoropyridin-3-yl)-6-(4-((6-methoxypyridin-3-yl)oxy)piperidin-1-yl)-5-methylpyrimidine]  633 nM
29. COc1ccc(OC2CCN(c3nnc(C(=O)N[C@@H]4CCCc5ccccc54)cc3C)CC2)cn1 [Example 187, 6-{4-[(6-methoxypyridin-3-yl)oxy]piperidin-1-yl}-5-methyl-N-[(1R)-1,2,3,4-tetrahydronaphthalen-1-yl]pyridazine-3-carboxamide]  1330 nM
30. CCCc1ncnc(N2CCC(Oc3ccc(OC)nc3)CC2)c1C [Example 248, 4-(4-((6-methoxypyridin-3-yl)oxy)piperidin-1-yl)-5-methyl-6-propylpyrimidine]  1550 nM
31. Cc1c(-c2ccc3c(=O)nc[nH]c3c2)ncnc1N1CCC(Oc2cccc(C#N)c2)CC1 [Example 253, 3-((1-(5-methyl-6-(4-oxo-1,4-dihydroquinazolin-7-yl)pyrimidin-4-yl)piperidin-4-yl)oxy)benzonitrile]  1740 nM
32. COc1ccc(OC2CCN(c3nnc(C(=O)Nc4ccc(CC(F)(F)F)cc4)cc3C)CC2)cn1 [Example 190, 6-{4-[(6-methoxypyridin-3-yl)oxy]piperidin-1-yl}-5-methyl-N-[4-(2,2,2-trifluoroethyl)phenyl]pyridazine-3-carboxamide]  2000 nM
33. CSc1ncc(C)c(N2CCC(Oc3cccnc3)CC2)n1 [Example 20, 5-methyl-2-(methylthio)-4-(4-(pyridin-3-yloxy)piperidin-1-yl)pyrimidine]  3060 nM
34. CSc1ncc(C#N)c(N2CCC(Oc3cccnc3)CC2)n1 [Example 95A, 2-(methylthio)-4-(4-(pyridin-3-yloxy)piperidin-1-yl)pyrimidine-5-carbonitrile]  4940 nM

Reference: US11319298B2 (Merck Sharp & Dohme Corp., priority 2016, dated 2022)
